Experimental data taken from US20260256792A1, “TREATMENT OF CHRONIC SPONTANEOUS URTICARIA BY ADMINISTERING (R)-2-[3-[4-AMINO-3-(2-FLUORO-4-PHENOXY-PHENYL)PYRAZOLO[3,4-D]PYRIMIDIN-1-YL]PIPERIDINE-1-CARBONYL]-4-METHYL-4-[4-(OXETAN-3-YL)PIPERAZIN-1-YL]PENT-2-ENENITRILE” (priority 2023, published 2026).

Test system: moderate-to-severe chronic spontaneous urticaria (CSU)
Experiment: Phase 2 CSU study: urticaria activity score over 7 days (UAS7)
Type: in vivo, human
Parameters: key to UAS7 Median / UAS7 Change from baseline Median / UAS7 change from baseline, Q1 / UAS7 change from baseline, Q3 / UAS7 change from baseline, Max / UAS7 Change from baseline LS Mean (SE): UAS7 points; daily UAS score ranges 0–6 points/day, over 7 days
From the text: The study comprises a 12 week, randomized, double-blind, placebo-controlled, multi-center, dose-ranging efficacy and safety phase, followed by a 40 week open label extension (OLE) phase (see FIG. 1). The study consists of three phases and an optional OLE phase. […] Clinically, CSU is characterized by the spontaneous and recurrent appearance of pruritic hives. The proposed primary endpoints were the UAS7 at Week 12 in EU and EU reference countries and the ISS7 in the US. Regardless of where a participant was from, all assessments were the same. The UAS7 score is a composite score containing both the HSS7 and the ISS7. This allowed a global assessment of the two key components of urticaria: hives and itch. […] The UAS is a validated PRO measure. […] The daily UAS scores range from 0 to 6 point/day. […] Patients were to complete the UAS using the e-diary. […] The following secondary endpoints were to be analyzed using the same approach as for the primary endpoint: • Change from baseline in UAS7 at Week 4 • Change from baseline in UAS7 at Week 12 (for US and US reference countries) • Change from baseline in ISS7 at Week 12 (except US and US reference countries) • Change from baseline in HSS7 at Week 12 The following responder secondary endpoints were to be analyzed using the Cochran-Mantel-Haenszel test adjusted by region: • Proportion of participants with UAS7<6 at Week 12 • Proportion of participants with UAS7=0 at Week 12 Participants who received selected prohibited medications and/or rescue medications were to be considered as non-responders for time points after the medication usage. For other participants, all available data including those collected during the off-treatment period were to be used to determine the responder/non-responder status. Missing data were to be considered as non-responders.

[1] = Week 11, 400 mg TID, Prior Omalizumab Use
[2] = Week 11, 400 mg TID, omalizumab-naive participants
[3] = Week 12, 400 mg BID, ITT population
[4] = Week 12, 400 mg BID, Omalizumab-Naïve
[5] = Week 12, 400 mg BID, Prior Omalizumab Use
[6] = Week 12, 400 mg BID, omalizumab-naive participants
[7] = Week 12, 400 mg QPM, ITT population
[8] = Week 12, 400 mg QPM, Omalizumab-Naïve
[9] = Week 12, 400 mg QPM, Prior Omalizumab Use
[10] = Week 12, 400 mg QPM, omalizumab-naive participants
[11] = Week 12, 400 mg TID, ITT population
[12] = Week 12, 400 mg TID, Omalizumab-Naïve
[13] = Week 12, 400 mg TID, Prior Omalizumab Use
[14] = Week 12, 400 mg TID, omalizumab-naive participants

## CC(C)(C=C(C#N)C(=O)N1CCC[C@@H](n2nc(-c3ccc(Oc4ccccc4)cc3F)c3c(N)ncnc32)C1)N1CCN(C2COC2)CC1 [rilzabrutinib, (R)-2-[3-[4-amino-3-(2-fluoro-4-phenoxy-phenyl)pyrazolo[3,4-d]pyrimidin-1-yl]piperidine-1-carbonyl]-4-methyl-4-[4-(oxetan-3-yl)piperazin-1-yl]pent-2-enenitrile]
[1]
  UAS7 Change from baseline Mean (SD): −25.94 (15.41)
  UAS7 Change from baseline Median: −26.33
  UAS7 Mean (SD): 7.08 (11.77)
  UAS7 Median: 1.75
  UAS7 Percent change from baseline Mean (SD): −76.09 (31.89) %
  UAS7 Percent change from baseline Median: −92.11%
[2]
  Non-responder, UAS7 reduction from baseline of 10 points or more: 12 (34.3) n (%)
  OR for rilzabrutinib vs. placebo, UAS7 reduction of 10 points or more: 1.839
  RRD (%) for rilzabrutinib vs. placebo, UAS7 reduction of 10 points or more: 13.6 %
  Responder, UAS7 reduction from baseline of 10 points or more: 23 (65.7) n (%)
[3]
  Non-responder, UAS7 reduction from baseline of 10 points or more: 23 (56.1) n (%)
  OR for rilzabrutinib vs. placebo, UAS7 reduction of 10 points or more: 1.041
  RRD (%) for rilzabrutinib vs. placebo, UAS7 reduction of 10 points or more: 1.0 %
  Responder, UAS7 reduction from baseline of 10 points or more: 18 (43.9) n (%)
[4]
  UAS7 Change from baseline Mean (SD): −14.49 (12.08)
  UAS7 Change from baseline Median: −12.80
  UAS7 Mean (SD): 15.61 (13.91)
  UAS7 Median: 14.00
  UAS7 Percent change from baseline Mean (SD): −50.20 (37.89) %
  UAS7 Percent change from baseline Median: −47.76%
[5]
  UAS7 Change from baseline Mean (SD): −26.00 (18.38)
  UAS7 Change from baseline Median: −31.00
  UAS7 Mean (SD): 8.75 (17.50)
  UAS7 Median: 0.00
  UAS7 Percent change from baseline Mean (SD): −75.00 (50.00) %
  UAS7 Percent change from baseline Median: −100.00%
[6]
  Non-responder, UAS7 reduction from baseline of 10 points or more: 20 (57.1) n (%)
  OR for rilzabrutinib vs. placebo, UAS7 reduction of 10 points or more: 1.069
  RRD (%) for rilzabrutinib vs. placebo, UAS7 reduction of 10 points or more: 1.7 %
  Responder, UAS7 reduction from baseline of 10 points or more: 15 (42.9) n (%)
[7]
  Non-responder, UAS7 reduction from baseline of 10 points or more: 24 (63.2) n (%)
  OR for rilzabrutinib vs. placebo, UAS7 reduction of 10 points or more: 0.841
  RRD (%) for rilzabrutinib vs. placebo, UAS7 reduction of 10 points or more: −4.0 %
  Responder, UAS7 reduction from baseline of 10 points or more: 14 (36.8) n (%)
[8]
  UAS7 Change from baseline Mean (SD): −10.57 (9.36)
  UAS7 Change from baseline Median: −8.70
  UAS7 Median: 22.87
  UAS7 Percent change from baseline Mean (SD): −33.23 (28.33) %
  UAS7 Percent change from baseline Median: −29.67%
[9]
  UAS7 Change from baseline Mean (SD): −25.00 (NC)
  UAS7 Change from baseline Median: −25.00
  UAS7 Mean (SD): 16.00 (NC)
  UAS7 Median: 16.00
  UAS7 Percent change from baseline Mean (SD): −60.98 (NC) %
  UAS7 Percent change from baseline Median: −60.98%
[10]
  Non-responder, UAS7 reduction from baseline of 10 points or more: 24 (64.9) n (%)
  OR for rilzabrutinib vs. placebo, UAS7 reduction of 10 points or more: 0.780
  RRD (%) for rilzabrutinib vs. placebo, UAS7 reduction of 10 points or more: −5.8 %
  Responder, UAS7 reduction from baseline of 10 points or more: 13 (35.1) n (%)
[11]
  Non-responder, UAS7 reduction from baseline of 10 points or more: 18 (43.9) n (%)
  OR for rilzabrutinib vs. placebo, UAS7 reduction of 10 points or more: 1.638
  RRD (%) for rilzabrutinib vs. placebo, UAS7 reduction of 10 points or more: 11.7 %
  Responder, UAS7 reduction from baseline of 10 points or more: 23 (56.1) n (%)
[12]
  UAS7 Change from baseline Mean (SD): −19.04 (11.40)
  UAS7 Change from baseline Median: −18.92
  UAS7 Mean (SD): 11.00 (9.90)
  UAS7 Percent change from baseline Mean (SD): −62.32 (31.89) %
  UAS7 Percent change from baseline Median: −60.00%
[13]
  UAS7 Change from baseline Mean (SD): −27.40 (16.76)
  UAS7 Change from baseline Median: −34.00
  UAS7 Mean (SD): 7.80 (13.01)
  UAS7 Median: 0.00
  UAS7 Percent change from baseline Mean (SD): −74.46 (35.38) %
  UAS7 Percent change from baseline Median: −100.00%
[14]
  Non-responder, UAS7 reduction from baseline of 10 points or more: 15 (42.9) n (%)
  OR for rilzabrutinib vs. placebo, UAS7 reduction of 10 points or more: 1.805
  Responder, UAS7 reduction from baseline of 10 points or more: 20 (57.1) n (%)
